Results taken from ChEMBL document CHEMBL5365467 (J Med Chem, 2023).

Legend:
Protein cereblon = Protein cereblon (Homo sapiens, UniProt Q96SW2); test: Binding affinity to CRBN (unknown origin) assessed as inhibition constant
[1] = target: Protein cereblon/Androgen receptor (Homo sapiens, UniProt P10275+Q96SW2); test: PROTAC activity at AR/CRBN in AR-positive human VCaP cells assessed as induction of androgen receptor degradation measured at 24 hrs; type: cell-based; details: read-out: DC50
Androgen receptor = target: T1, Androgen receptor (Homo sapiens, UniProt P10275)
T1 sequence (P10275 whole entry): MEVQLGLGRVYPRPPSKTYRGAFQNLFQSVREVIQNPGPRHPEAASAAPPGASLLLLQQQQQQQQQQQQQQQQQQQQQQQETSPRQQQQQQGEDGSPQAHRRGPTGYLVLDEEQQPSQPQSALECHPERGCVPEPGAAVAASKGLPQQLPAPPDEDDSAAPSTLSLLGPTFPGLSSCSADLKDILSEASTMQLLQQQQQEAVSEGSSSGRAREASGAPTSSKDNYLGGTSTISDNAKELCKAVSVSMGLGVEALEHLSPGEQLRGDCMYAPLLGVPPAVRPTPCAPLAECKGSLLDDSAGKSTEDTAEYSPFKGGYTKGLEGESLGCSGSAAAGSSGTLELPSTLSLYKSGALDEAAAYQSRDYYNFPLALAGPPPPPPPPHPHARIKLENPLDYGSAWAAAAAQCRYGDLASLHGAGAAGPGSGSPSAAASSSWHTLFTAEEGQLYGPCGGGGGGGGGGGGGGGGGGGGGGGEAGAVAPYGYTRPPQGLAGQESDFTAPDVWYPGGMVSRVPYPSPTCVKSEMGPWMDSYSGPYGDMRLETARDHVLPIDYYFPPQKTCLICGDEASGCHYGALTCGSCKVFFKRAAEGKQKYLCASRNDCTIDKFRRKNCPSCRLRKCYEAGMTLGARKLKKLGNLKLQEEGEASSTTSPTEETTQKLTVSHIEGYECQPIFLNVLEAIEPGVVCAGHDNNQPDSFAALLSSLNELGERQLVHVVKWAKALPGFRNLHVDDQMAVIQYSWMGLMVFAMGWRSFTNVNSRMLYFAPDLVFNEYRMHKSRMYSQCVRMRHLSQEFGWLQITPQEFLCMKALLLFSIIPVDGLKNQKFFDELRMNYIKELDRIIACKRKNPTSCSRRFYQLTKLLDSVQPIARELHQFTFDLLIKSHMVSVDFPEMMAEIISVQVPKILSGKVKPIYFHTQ

[2] = target: Protein cereblon/Androgen receptor (Homo sapiens, UniProt P10275+Q96SW2, T878A); test: PROTAC activity at AR T878A mutant/CRBN in human LNCaP cells assessed as induction of androgen receptor degradation measured at 24 hrs by Western blot analysis; type: cell-based
VCaP = test: Growth inhibition in human VCaP cells
[3] = Half life in Sprague-Dawley rat at 2 mg/kg, iv measured upto 24 hrs by LC-MS/MS analysis; details: in vivo
[4] = Volume of distribution at steady state in Sprague-Dawley rat at 2 mg/kg, iv measured upto 24 hrs by LC-MS/MS analysis; details: in vivo
[5] = Clearance in Sprague-Dawley rat at 2 mg/kg, iv measured upto 24 hrs by LC-MS/MS analysis; details: in vivo
[6] = Half life in Sprague-Dawley rat at 5 mg/kg, po measured upto 24 hrs by LC-MS/MS analysis; details: in vivo
in vivo [7] = details: Sprague-Dawley, rat, iv, 2 mg/kg
in vivo [8] = details: Sprague-Dawley, rat, po, 5 mg/kg
in vivo [9] = details: Sprague-Dawley, rat, po, 5 mg/kg; remark: listed apart in the source
in vivo [10] = details: Sprague-Dawley, rat, po, 5 mg/kg; remark: listed apart in the source
[11] = Half life in Sprague-Dawley rat at 1 mg/kg, iv measured upto 24 hrs by LC-MS/MS analysis; type: ADME, organism-based; details: in vivo
[12] = AUC (0 to t) in Sprague-Dawley rat at 1 mg/kg, iv measured upto 24 hrs by LC-MS/MS analysis; type: ADME, organism-based; set-up: dose 1 mg/kg, time < 24 hrs, route iv; details: in vivo
[13] = Volume of distribution at steady state in Sprague-Dawley rat at 1 mg/kg, iv measured upto 24 hrs by LC-MS/MS analysis; type: ADME, organism-based; details: in vivo, read-out: Vdss
[14] = Clearance in Sprague-Dawley rat at 1 mg/kg, iv measured upto 24 hrs by LC-MS/MS analysis; type: ADME, organism-based; details: in vivo
[15] = Half life in Sprague-Dawley rat at 3 mg/kg, po measured upto 24 hrs by LC-MS/MS analysis; type: ADME, organism-based; details: in vivo
[16] = Cmax in Sprague-Dawley rat at 3 mg/kg, po measured upto 24 hrs by LC-MS/MS analysis; type: ADME, organism-based; set-up: dose 3 mg/kg, time < 24 hrs, route po; details: in vivo
[17] = AUC (0 to t) in Sprague-Dawley rat at 3 mg/kg, po measured upto 24 hrs by LC-MS/MS analysis; type: ADME, organism-based; set-up: dose 3 mg/kg, time < 24 hrs, route po; details: in vivo
[18] = Oral bioavailability in Sprague-Dawley rat at 3 mg/kg measured upto 24 hrs by LC-MS/MS analysis; type: ADME, organism-based; details: in vivo

Chain of Protein cereblon/Androgen receptor (Homo sapiens, UniProt P10275+Q96SW2) (Q96SW2 whole entry, one chain of several): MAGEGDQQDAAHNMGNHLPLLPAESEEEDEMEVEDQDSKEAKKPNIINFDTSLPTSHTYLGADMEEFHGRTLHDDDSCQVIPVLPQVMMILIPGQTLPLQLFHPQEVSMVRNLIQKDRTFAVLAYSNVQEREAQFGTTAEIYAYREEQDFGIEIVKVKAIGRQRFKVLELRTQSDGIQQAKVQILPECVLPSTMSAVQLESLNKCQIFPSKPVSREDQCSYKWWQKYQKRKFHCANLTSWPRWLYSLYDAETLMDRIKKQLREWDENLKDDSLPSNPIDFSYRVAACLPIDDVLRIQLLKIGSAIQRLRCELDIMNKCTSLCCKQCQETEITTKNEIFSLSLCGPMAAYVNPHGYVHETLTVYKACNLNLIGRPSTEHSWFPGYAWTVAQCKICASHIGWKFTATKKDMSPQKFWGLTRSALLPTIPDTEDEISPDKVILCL
Chain of Protein cereblon (Q96SW2 whole entry): as the sequence (Q96SW2 whole entry, one chain of several) above

With `CN1CCN(c2cc3c(cc2F)C(=O)N(C2CCC(=O)NC2=O)C3=O)CC1` (configuration not stated) as the compound, how does the Ki (Protein cereblon) read?
The Ki was 4900 nM.

Which DC50 [1] does the source give for `N#Cc1ccc(N2CCC3(CCN(c4ccc(C(=O)N5CCC(CN6CCc7cc8c(cc7C6)C(=O)N(C6CCC(=O)NC6=O)C8=O)CC5)cc4)CC3)C2)cc1Cl` (configuration not stated) here?
The DC50 was 25 nM.

For `N#Cc1ccc(N2CCC3(CCN(c4ccc(C(=O)N5CCC(CCN6CCc7cc8c(cc7CC6)C(=O)N(C6CCC(=O)NC6=O)C8=O)CC5)cc4)CC3)C2)cc1Cl` (configuration not stated), which DC50 [1] is on record?
Its DC50 is 3000 nM.

Which IC50 (Androgen receptor) does the source give for `CN1CCN(C(=O)c2ccc(N3CCC4(CC3)CCN(c3ccc(C#N)c(Cl)c3)C4)cc2)CC1` here?
The IC50 was 80 nM.

Which results are given for `COC1(CN2Cc3cc4c(cc3C2)C(=O)N(C2CCC(=O)NC2=O)C4=O)CCN(C(=O)c2ccc(N3CCC4(CC3)C[C@H](C)N(c3ccc(C#N)c(Cl)c3)C4)cc2)CC1` (some centres not stated)?
DC50 [1]: 0.3 nM; DC50 [2]: 1 nM; IC50 (VCaP): 4.9 nM; half-life at 24 h [3]: 4.9 h; Vd at 24 h [4]: 4.1 L/kg; clearance at 24 h [5]: 13.8 mL/min/kg; half-life at 24 h [6]: 5.6 h; AUC(0-t) at 24 h (in vivo [7]): 2390 ng·h/mL; Cmax at 24 h (in vivo [8]): 179 ng/mL; AUC(0-t) at 24 h (in vivo [9]): 1320 ng·h/mL; bioavailability at 24 h (in vivo [10]): 22%

What does the source list for `C[C@H]1CC2(CCN(c3ccc(C(=O)N4CCC(CN5Cc6cc7c(cc6C5)C(=O)N(C5CCC(=O)NC5=O)C7=O)CC4)nc3)CC2)CN1c1ccc(C#N)c(Cl)c1` (some centres not stated)?
DC50 [1]: 15.6 nM; DC50 [2]: 4.6 nM; IC50 (VCaP): 46 nM

With `CN1CCN(c2ccc(C(=O)N[C@H]3CC[C@H](Oc4ccc(C#N)c(Cl)c4)CC3)cc2)CC1` as the compound, how does the IC50 (Androgen receptor) read?
The IC50 was 55 nM.

With `C[C@@H]1CC2(CCN(c3ccc(C(=O)N4CCC(CN5Cc6cc7c(cc6C5)C(=O)N(C5CCC(=O)NC5=O)C7=O)CC4)cc3)CC2)CN1c1ccc(C#N)c(Cl)c1` (some centres not stated) as the compound, how does the DC50 [1] read?
Its DC50 is 385 nM.

With `CN1CCN(C(=O)c2ccc(N3CCC4(CCN(c5ccc(C#N)c(Cl)c5)C4)C3)cc2)CC1` (configuration not stated) as the compound, how does the IC50 (Androgen receptor) read?
Its IC50 is 1800 nM.

With `CC[C@H]1CC2(CCN(c3ccc(C(=O)N4CCC(CN5Cc6cc7c(cc6C5)C(=O)N(C5CCC(=O)NC5=O)C7=O)CC4)cc3)CC2)CN1c1ccc(C#N)c(Cl)c1` (some centres not stated) as the compound, how does the IC50 (VCaP) read?
Its IC50 is 23 nM.

Which IC50 (Androgen receptor) does the source give for `CN1CCN(c2ccc(C(=O)N3CCC4(CC3)CN(c3ccc(C#N)c(Cl)c3)C4)cc2)CC1` here?
Its IC50 is greater than 10000 nM.

For `CN1CCN(c2ccc(C(=O)N3CCC4(CCN(c5ccc(C#N)c(Cl)c5)C4)C3)cc2)CC1` (configuration not stated), which IC50 (Androgen receptor) is on record?
The IC50 was 6900 nM.

For `C[C@H]1CC2(CCN(c3ccc(C(=O)N4CCC(C)(CN5Cc6cc7c(cc6C5)C(=O)N(C5CCC(=O)NC5=O)C7=O)CC4)cc3)CC2)CN1c1ccc(C#N)c(Cl)c1` (some centres not stated), which DC50 [1] is on record?
The DC50 was 3.8 nM.

What about the DC50 [2] of the same compound?
Its DC50 is 8.9 nM.

What about the IC50 (VCaP) of the same compound?
Its IC50 is 42 nM.

What about the half-life at 24 h [3] of the same compound?
Its half-life at 24 h is 6.1 h.

What about the Vd at 24 h [4] of the same compound?
Its Vd at 24 h is 3.1 L/kg.

And the clearance at 24 h [5]?
Its clearance at 24 h is 6.33 mL/min/kg.

And the half-life at 24 h [6]?
Its half-life at 24 h is 8.4 h.

What about the AUC(0-t) at 24 h (in vivo [7]) of the same compound?
The AUC(0-t) at 24 h was 5090 ng·h/mL.

What about the Cmax at 24 h (in vivo [8]) of the same compound?
The Cmax at 24 h was 539 ng/mL.

What about the AUC(0-t) at 24 h (in vivo [9]) of the same compound?
The AUC(0-t) at 24 h was 5730 ng·h/mL.

What about the bioavailability at 24 h (in vivo [10]) of the same compound?
The bioavailability at 24 h was 45%.

With `CN1CCN(c2ccc(C(=O)N[C@H]3CC[C@H](N(C)c4ccc(C#N)c(Cl)c4)CC3)cc2)CC1` as the compound, how does the IC50 (Androgen receptor) read?
The IC50 was 15 nM.

For `O=C1CCC(N2C(=O)c3ccc(N4CCC4)cc3C2=O)C(=O)N1` (configuration not stated), which Ki (Protein cereblon) is on record?
The Ki was 500 nM.

Which DC50 [1] does the source give for `C[C@H]1CC2(CCN(c3ccc(C(=O)N4CCC(O)(CN5Cc6cc7c(cc6C5)C(=O)N(C5CCC(=O)NC5=O)C7=O)CC4)cc3)CC2)CN1c1ccc(C#N)c(Cl)c1` (some centres not stated) here?
Its DC50 is 290 nM.

Which IC50 (VCaP) does the source give for `C[C@H]1CC2(CCN(c3cnc(C(=O)N4CCC(CN5Cc6cc7c(cc6C5)C(=O)N(C5CCC(=O)NC5=O)C7=O)CC4)cn3)CC2)CN1c1ccc(C#N)c(Cl)c1` (some centres not stated) here?
The IC50 was 10 nM.

And the half-life [11]?
Its half-life is 1.4 h.

And the AUC(0-t) at 24 h [12]?
Its AUC(0-t) at 24 h is 495 ng·h/mL.

And the Vd [13]?
The Vd was 2.3 L/kg.

And the clearance [14]?
Its clearance is 33.3 mL/min/kg.

What about the half-life [15] of the same compound?
The half-life was 1.2 h.

And the Cmax [16]?
The Cmax was 55 ng/mL.

What about the AUC(0-t) at 24 h [17] of the same compound?
The AUC(0-t) at 24 h was 235 ng·h/mL.

And the bioavailability [18]?
The bioavailability was 15%.
